In series [1] the test system is WA09 human embryonic stem (hES) cells. Put plainly: PLS-DA prediction of teratogenicity from secretome of treated hES cells (Example 9). The note with it: DevTox pharmaceutical.
Description: These included 11 known teratogens and 11 known non-teratogens. The current model is based on the mean fold change (treatment versus its associated intra-experimental control) of 15 metabolites common among the secretome of hES cells treated with pharmaceutical agents and unknown chemical compounds.
Series [2] relates to WA09 hESCs. Put plainly: LC-MS metabolomics: abundance changes of metabolites in hESCs dosed at circulating dose. Type of series: cell-based, human. On the procedure:
(§1) These medium controls provided baseline mass spectral data.
(§2) The 2.5 mL of spent media per well from Example 1 was added to 1.67 mL acetonitrile to make a 40% acetonitrile solution. The acetonitrile acts to “quench” the spent media sample, slowing or halting many metabolic processes and aiding in precipitation of cellular proteins. Samples were either stored at −80° C. for later analysis, or for immediate analysis, 250 μL of the quenched solution was mixed with 250 μL of water, to a final concentration of 20% acetonitrile, then added to a 3 kDa molecular weight cut-off filter spin column (Microcon YM-3 Centrifugal Filter, Millipore, Billerica, Mass.). Each sample was then centrifuged in an IEC CL31R Multispeed Centrifuge (Thermo Scientific, Waltham, Mass.) at 13,000×g at 4° C. for 200 minutes. Following centrifugation, the flow-through was saved then dried for several hours in a Savant High Capacity Speedvac Plus Concentrator. The concentrated sample was then dissolved in 50 μL of 0.1% formic acid prior to LC-MS analysis.
(§3) 5 μl of each sample was injected.
(§4) Following LC-MS, chromatograms were inspected for reproducibility. LC-MS runs with total ion counts that vary by more than 25% were repeated to ensure that samples could be accurately compared. These runs were then used to create mass features that correspond to molecules detected across the different LC-MS runs. Mass features were extracted from the LC-MS data using MassHunter Qualitative Analysis software (Agilent Technologies). The following criteria were used as general guidelines, however some flexibility and optimization was needed. m/z values within the range of 75-1500, with a charge of +1 or −1, and a centroid height greater than 1000 were used to generate “mass features.” The mass peaks that pass these criteria were used to fit isotope and adduct (Na^+, K^+, and NH4^+) patterns corresponding to individual molecules, and to establish the abundance of each mass feature. The abundance is calculated by MassHunter software as the sum of the isotopic and adduct peaks that correspond to a single molecular feature. After data deconvolution, mass features showing at least two ions (e.g. (M^+H)^+ and (M^+H)^++1 or (M^+H)^+ and (M^+Na)^+) and an abundance value greater than 50000 for positive-ion mode data and 10000 in negative-ion mode data were included in the data set used for binning of the mass features.
The media represents a major factor in the experimental system, in that it contributes many peaks to mass spectra. This can be accounted for in a data dependent manner to select for mass feature bins, which are present at significant levels above the media. Mass feature bins present solely in the presence of cells (not detected in media) or with average abundance levels different than uncultured media were considered to be secreted, excreted, consumed, or identified metabolites.
The exact mass of the metabolite must be within 10 ppm of the known mass of the compound. 2) The retention time of the metabolite detected in the cell media must be within + or −30 seconds of a reference standard on which MS data had been acquired under the same conditions. The reference standards were dissolved in mTeSR media and prepared in exactly the same manner (described above) as the samples from the cells, including the addition of acetonitrile, Centricon centrifugal filtration, drying then dissolution in formic acid prior to LC-MS analysis. 3) The MS-MS fragmentation spectra of the metabolite detected in the cell media must be a reasonable match with that of the reference standard, including abundances and m/z values of the fragment ions. If published MS-MS spectra are available, the MS-MS spectra must also be a reasonable match.

For series [3], the system named is hESCs. The series is described as follows: Arginine / ADMA fold change ratio (integrated EICs) in dosed hESCs vs controls. Particulars: for Arg fold change/ADMA fold change: EIC areas, controls vs. dosed. As to the method: All tested chemicals were purchased from Sigma-Aldrich (St. Louis, Mo.). Cells were dosed with drugs at a concentration equivalent to their published serum circulating therapeutic dosages. Dosing was performed on hESCs in 6-well plates in triplicate, i.e. three wells per plate. The plates were dosed in triplicate, so there were a total of nine dosed wells. In parallel, there were nine “control” wells, in which hESCs were cultured with mTeSR1 containing no drug, and three wells containing Matrigel with mTeSR1 medium without hESCs that served as medium controls. Lastly, three wells of dosed medium controls were prepared, containing Matrigel, mTeSR1 and drug, but no hESCs (FIG. 1). These medium controls provided baseline mass spectral data. On the first day of dosage, the determined concentration of drug was dissolved in mTeSR1, and then 2.5 mL of this solution was added to each dosed well of hESCs. Each day, for four days, the medium was removed and new dosed medium was added. On the fourth day, the medium was removed and added to acetonitrile to make a 40% acetonitrile solution, as outlined in the Sample Preparation section below.
Mass spectrometry was performed using an Agilent QTOF LC/MS system consisting of a G6520AA QTOF high resolution mass spectrometer capable of exact mass MS and MS/MS. In order to facilitate separation of small molecules with a wide range of polarity and to allow increased retention of hydrophilic species, Hydrophilic Interaction Liquid Chromatography (Alpert 1990) was employed. Each sample was run for 30 minutes with the gradient shown in Table 3 at a flow rate of 0.5 mL/min, using 0.1% formic acid in water (Solvent A) and 0.1% formic acid in acetonitrile (Solvent B). Electrospray ionization was employed using a dual ESI source, with an Agilent isocratic pump continuously delivering an internal mass reference solution into the source at approx. 0.01 mL/min. The mass range of the instrument was set to 100-1700 Da. A Phenomenex Luna HILIC column with dimensions 3×100 mm 3 μm particle size was used and maintained at 30° C. 5 μl of each sample was injected. Data acquisition was performed with Agilent MassHunter using high-resolution exact mass conditions.
Valproate is known to cause neural tube defects (DiLiberti et al. 1984) while nitric oxide synthase activity is essential for neural tube closure (Nachmany et al. 2006).

For series [4], the system named is WA09 hESCs. The series is described as follows: Random forest prediction of teratogenicity from metabolomics of spent media of dosed hESCs. Type of series: cell-based, human. Particulars: for Classification by the refined random forest model (FIG. 3): 18-feature model, 26 drug treatment experiments; for Predicted teratogenicity (random forest statistical model): blind study, model trained on TS1, 142 mass features, circulating dose. As to the method:
WA09 hESCs, obtained from WiCell Research Institute (NIH National Stem Cell Bank, Madison, Wis.) were cultured in 6-well plates on Matrigel (BD Biosciences, San Jose, Calif.), in mTeSR1 medium (Stem Cell Technologies, Vancouver, BC) incubated at 37° C. under 5% CO2 in a Thermo Electron Form a Series II Water Jacket CO2 Incubator. hESCs were passaged every three or four days at a 1:3 or 1:6 seeding density for routine culture conditions. For dosing experiments, hESCs were passaged at a low density of 1:10 or 1:12 so that they would not require passaging during the […] dosing protocol. To passage hES cells, the StemPro® EZPassage™ disposable stem cell passaging tool (Invitrogen, Carlsbad, Calif.) was used to detach the cells from the wells. Detached cells were removed with a pipette and distributed to new Matrigel plates.
as §1, §2, §3, §4
Following feature selection by MassHunter, the data was further preprocessed by MassProfiler (Agilent) software which aligns mass features across multiple LC-MS data files. Mass features were generated for data from each drug treatment experiment (dosed and control) using the default alignment settings in MassProfiler with the requirement that a feature be present in at least 80% of the samples in one treatment. The mass feature datasets for each drug treatment experiment were further processed in a global manner using custom analysis scripts executed in the R statistical software environment. […]

[5] abbreviates: high dose (H = 10x circulating dose).
[6] abbreviates: low dose (L = 0.1x circulating dose).

For `O=c1[nH]cc(F)c(=O)[nH]1` [5-Fluorouracil], in series [1] (setting [5]), the “% Non (PLS-DA class probability non-teratogen)” value (“% Non” for short) is reported as 0.32, the “% Ter (PLS-DA class probability teratogen)” value (from here on “% Ter”) was 0.68, the “Confidence (difference between class probabilities)” value is 0.36 and the Prediction result is “Ter”. In series [1] (setting [6]), the “% Non” value is 0.28, the “% Ter” value is 0.72, the “Confidence (difference between class probabilities)” value was 0.44 and the Prediction result is “Ter”. In addition, in series [2], the “Changes in metabolites on dosing” value is listed as “most profound changes in many metabolites”. Further, the “Abundance of succinic acid” value in series [2] (drug-treated vs control) was “significant down regulation”. Besides, in series [3], the “Arg/ADMA Prediction” value was “Ter” and the “Arg fold change/ADMA fold change” value was determined as 43.93.
For the molecule `CC1=C(/C=C/C(C)=C/C=C/C(C)=C\C(=O)O)C(C)(C)CCC1` [Accutane], in series [1] (setting [5]), the “% Non” value is listed as 0.3, the “% Ter” value is 0.7, the “Confidence (difference between class probabilities)” value is on record as 0.4 and the Prediction result is reported as “Ter”. Besides, in series [1] (setting [6]), the “% Non” value is recorded as 0.33, the “% Ter” value is 0.67, the “Confidence (difference between class probabilities)” value was 0.34 and the Prediction result was “Ter”. Besides, in series [4], the “Classification by the refined random forest model (FIG. 3)” value is listed as “misclassified as non-teratogens” and the “Predicted teratogenicity (random forest statistical model)” value (from here on “Predicted teratogenicity”) was “Non”. In series [3], the “Arg/ADMA Prediction” value is “Ter” and the “Arg fold change/ADMA fold change” value came to 0.55.
`CCCCc1oc2ccccc2c1C(=O)c1cc(I)c(OCCN(CC)CC)c(I)c1` [Amiodarone]: in series [4], the “Predicted teratogenicity” value is given as “Ter”. Besides, in series [3], the “Arg/ADMA Prediction” value is “Ter” and the “Arg fold change/ADMA fold change” value is on record as 1.64.
As to `CS(=O)(=O)OCCCCOS(C)(=O)=O` [Busulfan], in series [1] (setting [5]), the “% Non” value is 0.28, the “% Ter” value is given as 0.72, the “Confidence (difference between class probabilities)” value is 0.44 and the Prediction result is “Ter”. In addition, in series [1] (setting [6]), the “% Non” value is 0.29, the “% Ter” value was 0.71, the “Confidence (difference between class probabilities)” value is reported as 0.42 and the Prediction entry is “Ter”. The “Concentration of GABA in the secretome of hESCs” value in series [2] (dosed hESCs) is “Increased concentrations”. Besides, in series [3], the “Arg/ADMA Prediction” value was “Ter” and the “Arg fold change/ADMA fold change” value came out at 1.12.
For the molecule `Nc1ccn([C@@H]2O[C@H](CO)[C@@H](O)[C@@H]2O)c(=O)n1` [Cytosine Arabinoside], in series [2], the “Changes in metabolites on dosing” value is “most profound changes in many metabolites”. Besides, the “Abundance of succinic acid” value in series [2] (drug-treated vs control) is on record as “significant down regulation”. Moreover, in series [3], the “Arg/ADMA Prediction” value was “Ter” and the “Arg fold change/ADMA fold change” value is on record as 67.01.
As for `NC(=O)NO` [Hydroxyurea], in series [1] (setting [5]), the “% Non” value is on record as 0.32, the “% Ter” value was 0.68, the “Confidence (difference between class probabilities)” value is listed as 0.36 and the Prediction result is recorded as “Ter”. Besides, in series [1] (setting [6]), the “% Non” value is 0.64, the “% Ter” value is 0.36, the “Confidence (difference between class probabilities)” value is recorded as 0.28 and the Prediction entry was “Non”. Besides, the “Abundance of succinic acid” value in series [2] (drug-treated vs control) is given as “significant down regulation”. Moreover, in series [3], the “Arg/ADMA Prediction” value is listed as “Ter” and the “Arg fold change/ADMA fold change” value came to 2.52.
As for `CO[C@H]1/C=C/O[C@@]2(C)Oc3c(C)c(O)c4c(O)c(c(/C=N/N5CCN(C)CC5)c(O)c4c3C2=O)NC(=O)/C(C)=C\C=C\[C@H](C)[C@H](O)[C@@H](C)[C@@H](O)[C@@H](C)[C@H](OC(C)=O)[C@@H]1C` [Rifampicin], in series [1] (setting [5]), the “% Non” value is recorded as 0.27, the “% Ter” value is reported as 0.73, the “Confidence (difference between class probabilities)” value is recorded as 0.46 and the Prediction entry is given as “Ter”. For the same molecule, in series [1] (setting [6]), the “% Non” value is on record as 0.46, the “% Ter” value was 0.54, the “Confidence (difference between class probabilities)” value is given as 0.08 and the Prediction entry is listed as “Ter”. Further, in series [4], the “Classification by the refined random forest model (FIG. 3)” value is given as “misclassified as non-teratogens” and the “Predicted teratogenicity” value is listed as “Ter”. In series [3], the “Arg/ADMA Prediction” value is “Ter” and the “Arg fold change/ADMA fold change” value was found to be 0.81.
Consider `CCCC(CCC)C(=O)O` [Valproic Acid], for which, in series [2] (drug-treated vs control), the “Abundance of asymmetric dimethylarginine (ADMA)” value is “significant fold decrease” and the “Abundance of succinic acid” value was “significant down regulation”. Also, in series [3], the “Arg/ADMA Prediction” value is listed as “Ter” and the “Arg fold change/ADMA fold change” value is given as 2.11.
